Results as given in ChEMBL document CHEMBL1909294, “Translating clinical findings into knowledge in drug safety evaluation--drug induced liver injury prediction system (DILIps)” (PLoS Comput Biol, 2011).
*1 amine or outer side, *2 acyl side, *3 side chain or, on linkers, in order; H or OH if unused. Where a SMILES comes first, the peptide text is derived from it. Bridges are numbered along the chain shown (N, C = ends). [ ]: non-standard residue; d: D form. The star is where a group is joined. hTyr(3S-OH,4S-OH,3'-OSO3H) = N[C@H](C(=O)O)[C@H](O)[C@@H](O)c1ccc(O)c(OS(=O)(=O)O)c1; Orn(4R-OH,5R-OH) = O=C([C@H](C[C@@H](O)[C@@H](O)N[*:3])N[*:1])[*:2]; Pro(3S-OH,4S-Me) = C[C@H]1CN[C@H](C(=O)O)[C@H]1O; X1 = CCCCCOc1ccc(-c2cc(-c3ccc(C(=O)*)cc3)no2)cc1; Gln(3R-OH) = NC(=O)C[C@@H](O)[C@H](N)C(=O)O; Hyp = O=C(O)[C@@H]1C[C@@H](O)CN1

Key:
Hepatotoxicity [1] = system: Hepatotoxicity;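 for HepSE Combined Scores: combined hepatic side effect score as listed in the training data of the Drug Induced Liver Injury Prediction System (DILIps)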;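 for HepSE cholecystitis: Cholecystitis-related hepatic side effect score drawn from the DILIps (drug-induced liver injury prediction) training data set; call rule not given here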; for HepSE hepatic failure: call rule not given here;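 for HepSE hepatic necrosis: score of hepatic side effects for hepatic necrosis, drawn from the training data of DILIps, a prediction system for drug-induced liver injury; call rule not given here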;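 for HepSE hepatomegaly: hepatic side effect score for hepatomegaly, taken from the training set of the DILIps drug-induced liver injury prediction system; call rule not given here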;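 for HepSE liver fatty: hepatic side effect score for fatty liver, taken from the DILIps training set for predicting drug-induced liver injury; call rule not given here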;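 for HepSE liver function tests abnormal: hepatic side effect score taken from the DILIps (drug-induced liver injury prediction system) training data, here covering abnormal liver function test findings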
Hepatotoxicity [2] = system: Hepatotoxicity; remark: listed apart in the source;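 for HepSE Combined Scores: combined hepatic side effect score as listed in the training data of the Drug Induced Liver Injury Prediction System (DILIps)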; for HepSE hepatic failure: call rule not given here;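 for HepSE hepatic necrosis: score of hepatic side effects for hepatic necrosis, drawn from the training data of DILIps, a prediction system for drug-induced liver injury; call rule not given here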;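 for HepSE hepatomegaly: hepatic side effect score for hepatomegaly, taken from the training set of the DILIps drug-induced liver injury prediction system; call rule not given here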;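 for HepSE liver fatty: hepatic side effect score for fatty liver, taken from the DILIps training set for predicting drug-induced liver injury; call rule not given here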;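 for HepSE liver function tests abnormal: hepatic side effect score taken from the DILIps (drug-induced liver injury prediction system) training data, here covering abnormal liver function test findings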
Hepatotoxicity [3] = system: Hepatotoxicity; remark: listed apart in the source;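 for HepSE Combined Scores: combined hepatic side effect score as listed in the training data of the Drug Induced Liver Injury Prediction System (DILIps)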; for HepSE hepatic failure: call rule not given here;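 for HepSE hepatic necrosis: score of hepatic side effects for hepatic necrosis, drawn from the training data of DILIps, a prediction system for drug-induced liver injury; call rule not given here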;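 for HepSE hepatomegaly: hepatic side effect score for hepatomegaly, taken from the training set of the DILIps drug-induced liver injury prediction system; call rule not given here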;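 for HepSE liver fatty: hepatic side effect score for fatty liver, taken from the DILIps training set for predicting drug-induced liver injury; call rule not given here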;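 for HepSE liver function tests abnormal: hepatic side effect score taken from the DILIps (drug-induced liver injury prediction system) training data, here covering abnormal liver function test findings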
Hepatotoxicity [4] = system: Hepatotoxicity; remark: listed apart in the source;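 for HepSE Combined Scores: combined hepatic side effect score as listed in the training data of the Drug Induced Liver Injury Prediction System (DILIps)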; for HepSE hepatic failure: call rule not given here;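 for HepSE hepatic necrosis: score of hepatic side effects for hepatic necrosis, drawn from the training data of DILIps, a prediction system for drug-induced liver injury; call rule not given here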;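 for HepSE hepatomegaly: hepatic side effect score for hepatomegaly, taken from the training set of the DILIps drug-induced liver injury prediction system; call rule not given here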;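 for HepSE liver fatty: hepatic side effect score for fatty liver, taken from the DILIps training set for predicting drug-induced liver injury; call rule not given here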;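 for HepSE liver function tests abnormal: hepatic side effect score taken from the DILIps (drug-induced liver injury prediction system) training data, here covering abnormal liver function test findings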
Hepatotoxicity [5] = system: Hepatotoxicity; remark: listed apart in the source; for HepSE hepatic failure: call rule not given here
Hepatotoxicity [6] = system: Hepatotoxicity; remark: listed apart in the source; for HepSE hepatic failure: call rule not given here
Hepatotoxicity [7] = system: Hepatotoxicity; remark: listed apart in the source
Hepatotoxicity [8] = system: Hepatotoxicity; remark: listed apart in the source
Hepatotoxicity [9] = system: Hepatotoxicity; remark: listed apart in the source
Hepatotoxicity [10] = system: Hepatotoxicity; remark: listed apart in the source
Hepatotoxicity [11] = system: Hepatotoxicity; remark: listed apart in the source
Hepatotoxicity [12] = system: Hepatotoxicity; remark: listed apart in the source
Hepatotoxicity [13] = system: Hepatotoxicity; remark: listed apart in the source
Hepatotoxicity [14] = system: Hepatotoxicity; remark: listed apart in the source

Row | Molecule | HepSE_hepatic necrosis (Hepatotoxicity [1]) | HepSE_hepatic failure (Hepatotoxicity [2]) | HepSE_liver fatty (Hepatotoxicity [3]) | HepSE_liver function tests abnormal (Hepatotoxicity [4]) | HepSE_cholelithiasis (Hepatotoxicity [5]) | HepSE_bilirubinemia (Hepatotoxicity [6]) | HepSE_hepatomegaly (Hepatotoxicity [7]) | HepSE_Combined Scores (Hepatotoxicity [8]) | HepSE_cholecystitis (Hepatotoxicity [9]) | HepSE_liver disease (Hepatotoxicity [10]) | HepSE_jaundice (Hepatotoxicity [11]) | HepSE_hepatitis (Hepatotoxicity [12]) | HepSE_elevated liver function tests (Hepatotoxicity [13]) | HepSE_cirrhosis (Hepatotoxicity [14]) | also measured
1 | CCCCCOc1ccc(-c2cc(-c3ccc(C(=O)N[C@H]4C[C@@H](O)[C@@H](O)NC(=O)[C@@H]5[C@@H](O)[C@@H](C)CN5C(=O)[C@H]([C@H](O)CC(N)=O)NC(=O)[C@H]([C@H](O)[C@@H](O)c5ccc(O)c(OS(=O)(=O)O)c5)NC(=O)[C@@H]5C[C@@H](O)CN5C(=O)[C@H]([C@@H](C)O)NC4=O)cc3)no2)cc1 [MICAFUNGIN] (X1-[Orn(4R-OH,5R-OH)]T[Hyp][hTyr(3S-OH,4S-OH,3'-OSO3H)][Gln(3R-OH)][Pro(3S-OH,4S-Me)]; lactam 1-C) | 0 | 1 | 0 | 1 | 0 | 1 | 1 | 6 | 0 | 1 | 1 | 0 | 0 | 0 | 
2 | COC(=O)N[C@H](C(=O)N[C@@H](Cc1ccccc1)[C@@H](O)CN(Cc1ccc(-c2ccccn2)cc1)NC(=O)[C@@H](NC(=O)OC)C(C)(C)C)C(C)(C)C [ATAZANAVIR] | 0 | 0 | 1 | 0 | 1 | 1 | 1 | 7 | 1 | 0 | 1 | 1 | 0 | 0 | 
3 | UROFOLLITROPIN | 0 | 0 | 0 | 0 | 0 | 0 | 0 | 0 | 0 | 0 | 0 | 0 | 0 | 0 | 
4 | CC[N+](C)(C)Cc1ccccc1Br [BRETYLIUM] | 0 | 0 | 0 | 0 | 0 | 0 | 0 | 0 | 0 | 0 | 0 | 0 | 0 | 0 | 
5 | COc1ccc(C(=O)Nc2ccccc2CCC2CCCCN2C)cc1 (configuration not stated) [ENCAINIDE] | 0 | 0 | 0 | 0 | 0 | 0 | 0 | 2 | 0 | 0 | 1 | 1 | 0 | 0 | 
6 | C1N2CN3CN1CN(C2)C3 [METHENAMINE] | 0 | 0 | 0 | 0 | 0 | 0 | 0 | 0 | 0 | 0 | 0 | 0 | 0 | 0 | 
7 | Nc1ncnc2c1ncn2[C@@H]1O[C@H](COP(=O)(S)S)[C@@H](O)[C@H]1O | 1 | 1 | 0 | 0 | 0 | 0 | 0 | 6 | 0 | 0 | 1 | 1 | 1 | 1 | 
8 | OC(CNCC(O)C1CCc2cc(F)ccc2O1)C1CCc2cc(F)ccc2O1 (configuration not stated) [NEBIVOLOL] | 0 | 0 | 0 | 0 | 0 | 0 | 0 | 0 | 0 | 0 | 0 | 0 | 0 | 0 | 
9 | O=C1CN=C(c2ccccc2)c2cc([N+](=O)[O-])ccc2N1 [NITRAZEPAM] | 0 | 0 | 0 | 0 | 0 | 0 | 0 | 0 | 0 | 0 | 0 | 0 | 0 | 0 | 
10 | O=C[C@H](O)[C@@H](O)[C@@H](O)[C@H](O)CO [GALACTOSE] | 0 | 0 | 0 | 0 | 0 | 0 | 0 | 0 | 0 | 0 | 0 | 0 | 0 | 0 | 
11 | NCCS [CYSTEAMINE] | 0 | 0 | 0 | 0 | 0 | 0 | 0 | 0 | 0 | 0 | 0 | 0 | 0 | 0 | 
12 | NNCCc1ccccc1 [PHENELZINE] |  |  |  |  |  |  |  |  |  |  |  |  |  |  | HepSE_hepatic necrosis (Hepatotoxicity [1]; Liver): 0; HepSE_hepatic failure (Hepatotoxicity [2]; Liver): 0; HepSE_liver fatty (Hepatotoxicity [3]; Liver): 0; HepSE_liver function tests abnormal (Hepatotoxicity [4]; Liver): 0; HepSE_cholelithiasis (Hepatotoxicity [5]; Liver): 0; HepSE_bilirubinemia (Hepatotoxicity [6]; Liver): 0; HepSE_hepatomegaly (Hepatotoxicity [7]; Liver): 0; HepSE_Combined Scores (Hepatotoxicity [8]; Liver): 1; HepSE_cholecystitis (Hepatotoxicity [9]; Liver): 0; HepSE_liver disease (Hepatotoxicity [10]; Liver): 0; HepSE_jaundice (Hepatotoxicity [11]; Liver): 1; HepSE_hepatitis (Hepatotoxicity [12]; Liver): 0; HepSE_elevated liver function tests (Hepatotoxicity [13]; Liver): 0; HepSE_cirrhosis (Hepatotoxicity [14]; Liver): 0
13 | Brc1c(NC2=NCCN2)ccc2nccnc12 [BRIMONIDINE] |  |  |  |  |  |  |  |  |  |  |  |  |  |  | HepSE_hepatic necrosis (Hepatotoxicity [1]; Liver): 0; HepSE_hepatic failure (Hepatotoxicity [2]; Liver): 0; HepSE_liver fatty (Hepatotoxicity [3]; Liver): 0; HepSE_liver function tests abnormal (Hepatotoxicity [4]; Liver): 0; HepSE_cholelithiasis (Hepatotoxicity [5]; Liver): 0; HepSE_bilirubinemia (Hepatotoxicity [6]; Liver): 0; HepSE_hepatomegaly (Hepatotoxicity [7]; Liver): 0; HepSE_Combined Scores (Hepatotoxicity [8]; Liver): 0; HepSE_cholecystitis (Hepatotoxicity [9]; Liver): 0; HepSE_liver disease (Hepatotoxicity [10]; Liver): 0; HepSE_jaundice (Hepatotoxicity [11]; Liver): 0; HepSE_hepatitis (Hepatotoxicity [12]; Liver): 0; HepSE_elevated liver function tests (Hepatotoxicity [13]; Liver): 0; HepSE_cirrhosis (Hepatotoxicity [14]; Liver): 0
